Test results as given in ChEMBL document CHEMBL1201862, “PubChem BioAssay data set” (2004).
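1) Cells in 96-well plates. 2) Compound, 48 h, 5 concentrations. 3) Linear interpolation between surrounding doses. 4) Unreached endpoint = highest concentration. GI50: concentration for 50% inhibition of growth.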 Calls of active or inactive are those of the source. Rule as the data show it: active = GI50 up to about 1.1 µM and inactive = higher.

Assays:
Experiment in all cases: inhibition of tumour cell growth, NCI panel, 48 h
[1] = test system: A549
[2] = test system: ACHN
[3] = test system: DU-145
[4] = test system: HCT-15
[5] = test system: MDA-N
[6] = test system: NCI-H226
[7] = test system: NCI-H23
[8] = test system: OVCAR-8
[9] = test system: SF-295
[10] = test system: SK-MEL-2
[11] = test system: SR
[12] = test system: SW-620
[13] = test system: T47D

Cc1cccc(C)c1NC(=O)Nc1ccc(S(N)(=O)=O)cc1
GI50 [1]: > 100 µM (inactive)
GI50 [2]: > 100 µM (inactive)
GI50 [3]: > 100 µM (inactive)
GI50 [4]: > 100 µM
GI50 [5]: > 100 µM (inactive)
GI50 [6]: > 100 µM (inactive)
GI50 [7]: > 100 µM (inactive)
GI50 [8]: > 100 µM (inactive)
GI50 [9]: > 100 µM (inactive)
GI50 [10]: > 100 µM (inactive)
GI50 [11]: > 100 µM (inactive)
GI50 [12]: > 100 µM (inactive)
GI50 [13]: > 100 µM (inactive)

c1ccc(OCc2nnc(CCCCCCCCc3nnc(COc4ccccc4)o3)o2)cc1
GI50 [1]: > 100 µM (inactive)
GI50 [2]: > 100 µM (inactive)
GI50 [3]: > 100 µM (inactive)
GI50 [4]: > 100 µM
GI50 [5]: > 100 µM (inactive)
GI50 [6]: > 100 µM (inactive)
GI50 [7]: 65.9 µM (inactive)
GI50 [8]: 28.9 µM (inactive)
GI50 [9]: > 100 µM (inactive)
GI50 [10]: > 100 µM (inactive)
GI50 [12]: > 100 µM (inactive)

CN1C(=O)CC(=O)N1/C(=C/c1ccccc1)c1ccccc1
GI50 [1]: 85.3 µM (inactive)
GI50 [2]: 54.1 µM (inactive)
GI50 [3]: > 100 µM (inactive)
GI50 [5]: > 100 µM (inactive)
GI50 [6]: > 100 µM (inactive)
GI50 [7]: > 100 µM (inactive)
GI50 [8]: > 100 µM (inactive)
GI50 [9]: 67 µM (inactive)
GI50 [10]: 38.5 µM (inactive)
GI50 [11]: 76.4 µM (inactive)
GI50 [12]: > 100 µM (inactive)
GI50 [13]: > 100 µM (inactive)

Cc1ccc2c3c1[C@@H]1O[C@@H]1c1cccc(c1-3)[C@@H]1O[C@H]21
GI50 [1]: 15.9 µM (inactive)
GI50 [2]: 12.7 µM (inactive)
GI50 [3]: 11 µM (inactive)
GI50 [4]: 15.3 µM
GI50 [5]: 14.4 µM (inactive)
GI50 [6]: 28.2 µM (inactive)
GI50 [7]: 15.1 µM (inactive)
GI50 [8]: 11.5 µM (inactive)
GI50 [9]: 15.8 µM (inactive)
GI50 [10]: 16.1 µM (inactive)
GI50 [11]: 11.5 µM (inactive)
GI50 [13]: 3.08 µM (inactive)

CN(C)C(=O)C(F)(F)C(c1ccc(Br)cc1)C1C(=O)N(C)C(=O)N(C)C1=O (centres undefined)
GI50 [1]: > 100 µM (inactive)
GI50 [2]: > 100 µM (inactive)
GI50 [3]: > 100 µM (inactive)
GI50 [4]: > 100 µM
GI50 [6]: > 100 µM (inactive)
GI50 [7]: > 100 µM (inactive)
GI50 [9]: > 100 µM (inactive)
GI50 [10]: > 100 µM (inactive)
GI50 [12]: > 100 µM (inactive)
GI50 [13]: > 100 µM (inactive)

COc1ccc(/C=C2\C[C@H]3[C@@H]4CCC5=C/C(=N/O)CC[C@]5(C)[C@H]4CC[C@]3(C)\C2=N\O)cc1OC
GI50 [1]: 6.98 µM (inactive)
GI50 [2]: 14.5 µM (inactive)
GI50 [3]: 63.4 µM (inactive)
GI50 [4]: 14.7 µM
GI50 [5]: 11.6 µM (inactive)
GI50 [6]: 2.51 µM (inactive)
GI50 [7]: 43.4 µM (inactive)
GI50 [8]: 11 µM (inactive)
GI50 [9]: 7 µM (inactive)
GI50 [10]: 15.9 µM (inactive)
GI50 [11]: 6.14 µM (inactive)
GI50 [12]: 34.2 µM (inactive)
GI50 [13]: 7.66 µM (inactive)

CCOC(=O)C1=NN(c2ccc(Cl)cc2)C2=CC(C)=NN(C)C(=S)N21
GI50 [1]: 95.7 µM (inactive)
GI50 [2]: 72.6 µM (inactive)
GI50 [3]: 79.3 µM (inactive)
GI50 [4]: 67.5 µM
GI50 [5]: > 100 µM (inactive)
GI50 [7]: 42.1 µM (inactive)
GI50 [8]: 41.3 µM (inactive)
GI50 [9]: 42.2 µM (inactive)
GI50 [10]: > 10 µM (inactive)
GI50 [11]: > 100 µM (inactive)
GI50 [12]: 94.6 µM (inactive)
GI50 [13]: 23.9 µM (inactive)

CC(=C(c1ccccc1)c1ccccc1)N1C(=O)CC(=O)N1C
GI50 [1]: 35 µM (inactive)
GI50 [2]: > 100 µM (inactive)
GI50 [3]: > 100 µM (inactive)
GI50 [5]: 48.3 µM (inactive)
GI50 [6]: > 100 µM (inactive)
GI50 [7]: > 100 µM (inactive)
GI50 [8]: 99.1 µM (inactive)
GI50 [9]: 52.7 µM (inactive)
GI50 [10]: 16.7 µM (inactive)
GI50 [12]: > 100 µM (inactive)
GI50 [13]: 78.2 µM (inactive)

Cc1ccnc2nc(N)ccc12
GI50 [1]: > 100 µM (inactive)
GI50 [2]: > 100 µM (inactive)
GI50 [3]: > 100 µM (inactive)
GI50 [4]: > 100 µM
GI50 [5]: > 100 µM (inactive)
GI50 [6]: > 100 µM (inactive)
GI50 [7]: > 100 µM (inactive)
GI50 [8]: > 100 µM (inactive)
GI50 [9]: > 100 µM (inactive)
GI50 [10]: > 100 µM (inactive)
GI50 [11]: > 100 µM (inactive)
GI50 [12]: > 100 µM (inactive)
GI50 [13]: > 100 µM (inactive)

C=CCc1cccc2cc(C(=O)Nc3ccc(C)cc3)c(=N)oc12
GI50 [1]: > 100 µM (inactive)
GI50 [2]: > 100 µM (inactive)
GI50 [3]: > 100 µM (inactive)
GI50 [4]: > 100 µM
GI50 [5]: > 100 µM (inactive)
GI50 [6]: 33.9 µM (inactive)
GI50 [7]: > 100 µM (inactive)
GI50 [8]: > 100 µM (inactive)
GI50 [10]: 45.2 µM (inactive)
GI50 [11]: > 100 µM (inactive)
GI50 [12]: > 100 µM (inactive)
GI50 [13]: > 100 µM (inactive)

CCOC(=O)C1(C(F)(F)F)N=C(CC)OC(N2CCOCC2)=N1 (centres undefined)
GI50 [1]: > 100 µM (inactive)
GI50 [2]: > 100 µM (inactive)
GI50 [3]: > 100 µM (inactive)
GI50 [4]: > 100 µM
GI50 [5]: > 100 µM (inactive)
GI50 [7]: > 100 µM (inactive)
GI50 [8]: > 100 µM (inactive)
GI50 [9]: > 100 µM (inactive)
GI50 [10]: > 100 µM (inactive)
GI50 [11]: > 100 µM (inactive)
GI50 [12]: > 100 µM (inactive)
GI50 [13]: 46.6 µM (inactive)

O=C(O)C(O)Cc1ccccn1 (centres undefined)
GI50 [1]: > 100 µM (inactive)
GI50 [2]: > 100 µM (inactive)
GI50 [3]: > 100 µM (inactive)
GI50 [4]: > 100 µM
GI50 [6]: > 100 µM (inactive)
GI50 [7]: > 100 µM (inactive)
GI50 [8]: > 100 µM (inactive)
GI50 [9]: > 100 µM (inactive)
GI50 [10]: > 100 µM (inactive)
GI50 [11]: > 100 µM (inactive)
GI50 [12]: > 100 µM (inactive)
GI50 [13]: > 100 µM (inactive)

O=C(O)C(F)(F)C(F)(F)C(F)(F)C(F)(F)C(F)(F)C(F)(F)C(F)(F)C(F)(F)F
GI50 [1]: 47.8 µM (inactive)
GI50 [2]: 65.3 µM (inactive)
GI50 [3]: 47.6 µM (inactive)
GI50 [4]: 27.4 µM
GI50 [5]: 40.4 µM (inactive)
GI50 [6]: 34.2 µM (inactive)
GI50 [7]: 61.4 µM (inactive)
GI50 [8]: 43.9 µM (inactive)
GI50 [9]: 31 µM (inactive)
GI50 [12]: 52.5 µM (inactive)
GI50 [13]: 57.3 µM (inactive)

Cc1cc(=O)nc(S(=O)(=O)NC(=S)Nc2ccc(Cl)cc2)[nH]1
GI50 [1]: > 100 µM (inactive)
GI50 [2]: > 100 µM (inactive)
GI50 [3]: > 100 µM (inactive)
GI50 [4]: > 100 µM
GI50 [5]: > 100 µM (inactive)
GI50 [6]: > 100 µM (inactive)
GI50 [7]: > 100 µM (inactive)
GI50 [8]: > 100 µM (inactive)
GI50 [9]: > 100 µM (inactive)
GI50 [10]: > 100 µM (inactive)
GI50 [11]: 18.8 µM (inactive)
GI50 [12]: > 100 µM (inactive)
GI50 [13]: 44.9 µM (inactive)

O=C(O)c1ccc(C(=O)O)c2c(C(=O)O)ccc(C(=O)O)c12
GI50 [1]: > 100 µM (inactive)
GI50 [2]: > 100 µM (inactive)
GI50 [3]: > 100 µM (inactive)
GI50 [4]: > 100 µM
GI50 [5]: > 100 µM (inactive)
GI50 [6]: > 100 µM (inactive)
GI50 [7]: > 100 µM (inactive)
GI50 [8]: > 100 µM (inactive)
GI50 [9]: > 100 µM (inactive)
GI50 [10]: > 100 µM (inactive)
GI50 [11]: > 100 µM (inactive)
GI50 [12]: > 100 µM (inactive)
GI50 [13]: > 100 µM (inactive)

CC=C/C=C/[C@@H]1O[C@](O)([C@H](CC)C(=O)NC/C=C/C=C(\C)[C@@H](OC)[C@@H](C)[C@@H]2O[C@H](/C=C/C=C/C=C(\C)C(=O)c3c(O)cc[nH]c3=O)[C@H](O)[C@@H]2O)[C@H](O)[C@H](O)C1(C)C
GI50 [1]: > 100 µM (inactive)
GI50 [2]: > 100 µM (inactive)
GI50 [4]: > 100 µM
GI50 [7]: > 100 µM (inactive)
GI50 [8]: 72.3 µM (inactive)
GI50 [9]: 69.7 µM (inactive)
GI50 [10]: > 100 µM (inactive)
GI50 [11]: > 100 µM (inactive)
GI50 [12]: > 100 µM (inactive)
